{
  "source": "patent US20240010726A1",
  "about": "“LFA-1 SIGNALLING MEDIATOR FOR USE IN CANCER THERAPY” (Universität Basel, priority 2020, published 2024)",
  "key": {"[1]": {"system": "WT and LFA-1^−/− Jurkat T cells", "assay": "Calcium flux assay in WT and LFA-1−/− Jurkat T cells", "assay_type": "cell-based, human", "description": "FIG. 3: Magnesium regulates LFA-1 mediated T cell activation and cytotoxicity as well BiTE- and CAR T-cell functionality. (a) Glycolytic switch of murine WT and LFA-1^−/− CTLs upon injection of anti-CD3/28 Ab in medium containing 1.2 mM Mg^2+ and 0 mM Mg^2+, presented as quantification of summarized data with n=4 mice. (b) Calcium flux in WT and LFA-1^−/− Jurkat T cells stimulated with anti-CD3 Ab in 1.2 mM and 0 mM Mg^2+ medium, respectively. Cells were loaded with Fluo4, and signal intensity as recorded by plate reader, was normalized to unstimulated baseline values. […] Quantified results of n=3 mice with 3 technical replicates each. […] The effector to target cell ratio was 3:1. Results are quantified of n=3 mice with 3 technical replicates each. (e) Representative CD11a (LFA-1) surface expression on human naïve and EM CD8 T cells, PHA T cell blasts and REP T cells, assessed by flow cytometry. […] The effector to target cell ratio was 1:1. Data is presented as quantified results of n=5 healthy donors (f, g, h), n=3 healthy donors with 2 technical replicates each or n=1 healthy donor with 4 technical replicates (j). […] The effector to target cell ratio was 1:1. Data is presented as quantified results of n=1 healthy donor with 4 technical replicates. […] (n) Representative histogram of CD11a expression on PHA-blasts, untransduced T cells as well anti-CD19 expressing CAR T cells. […] Pooled results of n=6 from 2 independent experiments are shown. (p) Abundance of IFNγ in cell culture supernatants corresponding to the conditions depicted in (o) at 24 hours was determined by ELISA (n=8, 3 independent experiments). (q) Tumor growth curves of mice placed on either Mg^2+-depleted diet or respective control diet and treated with either anti-PSMA CAR T cells, untransduced T cells or saline solution. Representative of n=2 independent experiments with n=6 mice per group. Jurkat T cells were loaded with Fluo4 (Invitrogen) at a final concentration of 2 μM in Mg^2+ free self-made medium for 30 min at 37° C. […] Fluorescence intensity over time was measure with a Tecan Spark M10 plate reader. […]"}, "[2]": {"system": "luciferase-expressing EL4 target cells", "assay": "Cytotoxicity assay of WT and LFA-1−/− OT1 CTLs with luciferase-expressing EL4 target cells", "assay_type": "cell-based, murine", "details": "EL4 pulsed with altered OVA peptides (G4, H7, R7) at 10^−6 M; 4 h; E:T 3:1; 1.2 mM or 0 mM Mg^2+", "description": "FIG. 4: Magnesium regulates LFA-1 mediated T cell activation and cytotoxicity within physiologic range • (a) Metabolic flux analysis of human EM CD8 T cells upon supra-physiologic activation with anti-CD3 and anti-CD28 Ab, and additional injection of secondary, cross-linking anti-CD3/28 Ab, in medium containing 1.2 mM Mg^2+, 0 mM Mg^2+, or medium which was reconstituted to 1.2 mM Mg^2+ immediately prior to activation (0→1.2 mM Mg^2+). Pooled results from n=6 healthy donors from 3 independent experiments. (b) CD69 expression of PHA T cell blasts upon activation with indicated concentrations of plate-bound anti-CD3 mAb in ±Mg^2+ containing medium. […] Cytotoxicity was quantified after adding luciferin to medium and measuring luminescent signal intensity. […] Cytotoxicity was quantified after adding luciferin to medium and measuring luminescent signal intensity. […]\nOT-I derived CTLs were stimulated with OVA257-264 peptide ([…], Eurogentec) or the altered peptide ligands R7 ([…], Eurogentec), H7 ([…], Eurogentec) or G4 ([…], Eurogentec) at 10 μM for 4 h. […] Cytotoxicity was either evaluated with fluorogenic caspase-3 substrate (as described above) or luciferase-expressing EL4 target cells. Cytotoxicity was quantified after adding luciferin at 0.15 mg ml^−1 (PerkinElmer) to medium and measuring luminescent signal intensity by plate reader (Synergy H1, BioTek)."}, "[3]": {"details": "anti-CD3 Ab, 0 mM vs 1.2 mM Mg^2+"}},
  "data": [
    {"smiles": "[Mg+2]", "note": "[Mg^2+, Magnesium]", "values": [
      {"measurement": "Ca^2+ influx in LFA-1^−/− Jurkat T cells", "setting": "[1]; [3]", "value": "independent from extracellular Mg^2+ concentrations"},
      {"measurement": "Ca^2+ influx in WT Jurkat T cells", "setting": "[1]; [3]", "value": "decreased Ca^2+ influx"},
      {"measurement": "Prolonged, sustained Ca^2+ influx", "setting": "[1]; extracellular Mg^2+ depletion", "value": "absence of prolonged, sustained Ca^2+ influx"},
      {"measurement": "Specific target cell lysis by OT1 CTLs", "setting": "[2]", "value": "confirmed across a spectrum of TCR affinities"}
    ]}
  ]
}
